Here are results for four compounds from paper PMC10223265 (Viruses, 2023).

A short description of data set [1]: Metabolic stability in rat plasma. It counts as in vitro ADME. The conditions noted are these: 37 °C, 4-h incubation, read-out: degradation.
For the next data set, the target named is proteinase K (Parengyodontium album, UniProt P06873). Put plainly: Metabolic stability in proteinase K solution. It is filed as in vitro ADME. The conditions noted are these: proteinase K 100 ng/mL, 50 μM peptide, 37 °C, 4-h incubation, read-out: original amount remaining.
Sequence of proteinase K (P06873 106-384): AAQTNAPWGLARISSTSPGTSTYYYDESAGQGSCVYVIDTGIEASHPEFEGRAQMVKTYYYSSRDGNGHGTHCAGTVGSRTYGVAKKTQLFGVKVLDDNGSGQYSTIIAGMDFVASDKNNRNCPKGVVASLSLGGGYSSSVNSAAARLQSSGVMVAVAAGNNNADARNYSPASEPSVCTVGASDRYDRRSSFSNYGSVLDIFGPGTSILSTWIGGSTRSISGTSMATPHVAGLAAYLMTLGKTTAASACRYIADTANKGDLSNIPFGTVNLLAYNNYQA
The nature of data set [2]: Solubility (saturated solution, RP-HPLC). It is filed as physicochemical.
Another data set deals with CEMx174 5.25M7 cells. Description: Cell Counting Kit-8 (CCK8) cytotoxicity assay. It counts as cell-based. The conditions noted are these: at 2000 nM.
The nature of data set [3]: CD spectroscopy of isolated peptides. It counts as physicochemical. The conditions noted are these: 10 μM, [θ]222nm.
The next data set concerns the target CCR5 (Homo sapiens, UniProt P51681). Put plainly: RANTES-induced calcium mobilization assay in CCR5-expressing HEK293 cells. The conditions noted are these: RANTES 34.6 nM, HEK293 cells expressing Gα15 and CCR5, Fluo-4. It is filed as cell-based.
In data set [4] the test system is HIV-1 BaL strain (subtype B, R5). Put plainly: HIV-1 infection assay (p24 ELISA), laboratory-adapted R5 virus. It counts as cell-based. The conditions noted are these: Human immunodeficiency virus 1, BAL, CEMx174 5.25M7.
Data set [5] deals with HIV-1 J32228M4 (subtype D, R5). Put plainly: HIV-1 infection assay, primary isolate J32228M4. It is filed as cell-based. The conditions noted are these: Human immunodeficiency virus 1, CEMx174 5.25 M7 cells.
In data set [6] the test system is HIV-1 92UG029 (subtype A, X4). Put plainly: HIV-1 infection assay, primary isolate 92UG029. The conditions noted are these: Human immunodeficiency virus 1, primary isolate 92UG029, subtype A, CEMx174 5.25 M7 cells. It is filed as cell-based.
The test system of data set [7] is HIV-1 91US_4 (subtype B, R5). Description: HIV-1 infection assay, primary isolate 91US_4. It is filed as cell-based. The conditions noted are these: Human immunodeficiency virus 1, primary isolate 91US_4, subtype B, CEMx174 5.25 M7 cells.
Data set [8] concerns HIV-1 strain 89BZ167 (subtype B, X4). Put plainly: HIV-1 infection assay, primary isolate 89BZ167. It is filed as cell-based. The conditions noted are these: Human immunodeficiency virus 1, CEMx174 5.25M7.
Setting [9] is: PBS pH 7.4, room temperature, read-out: Solubility in PBS (pH 7.4).

Where two headings read alike, the source gives them in different places. Where a SMILES comes first, the peptide text is derived from it. Side-chain parts run from the residue outwards. The star is where a group is joined. X1 = CC(=O)N1CCC(C(=O)N(CCCN2CCC(Cc3ccc(C(=O)*)cc3)CC2)c2ccc(C)c(Cl)c2)CC1; PEG4 = NCCOCCOCCOCCOCCC(=O)O

Sequence of CCR5 (P51681 whole entry): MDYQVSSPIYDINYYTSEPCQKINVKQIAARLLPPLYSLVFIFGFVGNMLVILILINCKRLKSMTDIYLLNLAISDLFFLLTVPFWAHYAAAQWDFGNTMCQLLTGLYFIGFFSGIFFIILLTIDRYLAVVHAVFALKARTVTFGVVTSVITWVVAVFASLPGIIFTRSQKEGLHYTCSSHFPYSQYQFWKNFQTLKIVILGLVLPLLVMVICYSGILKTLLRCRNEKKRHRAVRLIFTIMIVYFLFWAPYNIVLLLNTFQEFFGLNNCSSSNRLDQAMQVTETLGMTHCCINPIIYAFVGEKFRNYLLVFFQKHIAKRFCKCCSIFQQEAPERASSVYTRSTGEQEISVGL

Take enfuvirtide: the metabolised at 4 h, 50 μM in [1] was determined as 68%. Moreover, on proteinase K, the share remaining at 4 h, 50 μM is 35.8%. The solubility thermodynamic at 24 h stood at 1020 ± 30 µg/mL in data set [2] (setting [9]) and 330 ± 10 µg/mL in data set [2] (water (dd-H2O), H2O, room temperature, read-out: Solubility in H2O).

In the case of `CC[C@H](C)[C@H](NC(=O)[C@H](CO)NC(=O)[C@H](CCC(=O)O)NC(=O)[C@H](CCC(=O)O)NC(=O)[C@H](CCC(N)=O)NC(=O)[C@H](CCCCN)NC(=O)[C@H](CCCCN)NC(=O)[C@@H](NC(=O)[C@H](CCC(N)=O)NC(=O)[C@H](CCC(=O)O)NC(=O)[C@H](CCC(=O)O)NC(=O)[C@@H](NC(=O)[C@H](CCCCN)NC(=O)[C@H](CCCCN)NC(=O)[C@@H](NC(=O)[C@H](CC(C)C)NC(=O)[C@H](CCC(=O)O)NC(=O)[C@H](CCC(=O)O)NC(=O)[C@H](CO)NC(=O)[C@H](CCCCN)NC(=O)[C@H](CCCCN)NC(=O)[C@@H](NC(=O)[C@H](CC(C)C)NC(=O)[C@H](CCC(=O)O)NC(=O)[C@H](CCC(=O)O)NC(=O)[C@@H](NC(=O)[C@H](CCCCN)NC(=O)[C@H](CCCCN)NC(=O)[C@H](CC(=O)O)NC(=O)[C@H](Cc1c[nH]c2ccccc12)NC(=O)[C@H](CCC(=O)O)NC(=O)[C@H](CCC(=O)O)NC(=O)[C@H](Cc1c[nH]c2ccccc12)NC(=O)[C@@H](NC(=O)[C@H](CCSC)NC(C)=O)[C@@H](C)O)[C@@H](C)CC)[C@@H](C)CC)[C@@H](C)CC)[C@@H](C)CC)[C@@H](C)CC)C(=O)N[C@@H](CCCCN)C(=O)N[C@@H](CCCCN)C(=O)N[C@@H](CCCCNC(=O)CCOCCOCCOCCOCCNC(=O)c1ccc(CC2CCN(CCCN(C(=O)C3CCN(C(C)=O)CC3)c3ccc(C)c(Cl)c3)CC2)cc1)C(N)=O` [AP3P4E] (Ac-MTWEEWDKKIEELIKKSEELIKKIEEQIKKQEESIKKK([PEG4-X1])-NH2), the cytotoxicity result in the data set with CEMx174 5.25M7 cells is “no cytotoxicity”. Also, in the data set with proteinase K, the share remaining at 4 h, 50 μM was 89.9%. Moreover, the “helical content (isolated peptide)” value in [3] is listed as 83%. Besides, the solubility at 24 h is above 60000 µg/mL in data set [2] (setting [9]) and above 60000 µg/mL in data set [2] (dd-H2O, H2O, room temperature, read-out: Solubility in H2O).

For the compound `CC(=O)N1CCC(C(=O)N(CCCN2CCC(Cc3ccc(C(N)=O)cc3)CC2)c2ccc(C)c(Cl)c2)CC1` [TAK-220], the 50% inhibitory concentration (IC50) on CCR5 came out at 0.74 nM. In addition, the EC50 in data set [4] was 23.8 ± 13.3 nM; in [5], 161 ± 6.6 nM; in [6] it was above 300 nM; in data set [7], 12.1 ± 2.7 nM; in [8] it was above 300 nM.

On to `CC[C@H](C)[C@H](NC(=O)[C@H](CO)NC(=O)[C@H](CCC(=O)O)NC(=O)[C@H](CCC(=O)O)NC(=O)[C@H](CCC(N)=O)NC(=O)[C@H](CCCCN)NC(=O)[C@H](CCCCN)NC(=O)[C@@H](NC(=O)[C@H](CCC(N)=O)NC(=O)[C@H](CCC(=O)O)NC(=O)[C@H](CCC(=O)O)NC(=O)[C@@H](NC(=O)[C@H](CCCCN)NC(=O)[C@H](CCCCN)NC(=O)[C@@H](NC(=O)[C@H](CC(C)C)NC(=O)[C@H](CCC(=O)O)NC(=O)[C@H](CCC(=O)O)NC(=O)[C@H](CO)NC(=O)[C@H](CCCCN)NC(=O)[C@H](CCCCN)NC(=O)[C@@H](NC(=O)[C@H](CC(C)C)NC(=O)[C@H](CCC(=O)O)NC(=O)[C@H](CCC(=O)O)NC(=O)[C@@H](NC(=O)[C@H](CCCCN)NC(=O)[C@H](CCCCN)NC(=O)[C@H](CC(=O)O)NC(=O)[C@H](Cc1c[nH]c2ccccc12)NC(=O)[C@H](CCC(=O)O)NC(=O)[C@H](CCC(=O)O)NC(=O)[C@H](Cc1c[nH]c2ccccc12)NC(=O)[C@@H](NC(=O)[C@H](CCSC)NC(C)=O)[C@@H](C)O)[C@@H](C)CC)[C@@H](C)CC)[C@@H](C)CC)[C@@H](C)CC)[C@@H](C)CC)C(=O)N[C@@H](CCCCN)C(=O)N[C@@H](CCCCN)C(N)=O` [AP3] (Ac-MTWEEWDKKIEELIKKSEELIKKIEEQIKKQEESIKK-NH2), for which the 50% inhibitory concentration (IC50) on CCR5 was above 625 nM. For the same compound, the “helical content (isolated peptide)” value in data set [3] is reported as 86%.
